In patent US8507251B2, “Medium and method for culturing Mycobacterium avium subspecies paratuberculosis” (priority 2009, dated 2013):
“And” between values parts separate entries of the source, which are not always exact repeats. Equal values may be shown once. Read-outs that look alike come from different tables or passages of the source.

What was measured:
M. avium ATCC 25291 = test: radiometric 14CO2 BACTEC 460 growth culture, M. avium 25291; type: cell-based, M. avium subspecies avium
MAP ATCC 19698 = test: radiometric 14CO2 BACTEC 460 growth culture, MAP 19698; type: cell-based, Mycobacterium avium subspecies paratuberculosis
MAP 303 = test: radiometric 14CO2 BACTEC 460 growth culture, MAP 303; type: cell-based, Mycobacterium avium subspecies paratuberculosis
M. avium 101 = test: radiometric 14CO2 BACTEC 460 growth culture, M. avium 101; type: cell-based, M. avium subspecies avium
[1] = tested on: Bacillus Callmette Guerin (BCG) M. bovis Karlson & Lessel (ATCC 19015); type: cell-based
[2] = tested on: avirulent M. tb strain ATCC 25177; type: cell-based, M. tuberculosis
[3] = tested on: MAP strain Dominic (ATCC 43545); test: radiometric 14CO2 BACTEC 460 growth culture, MAP Dominic; type: cell-based, Mycobacterium avium subspecies paratuberculosis
MAP strain UCF-4 = test: radiometric 14CO2 BACTEC 460 growth culture, MAP UCF-4; type: cell-based, Mycobacterium avium subspecies paratuberculosis
[4] = 1 μg/ml, first of the two values (two experiments)
[5] = 1 μg/ml, second of the two values (two experiments)
[6] = 4 μg/ml, first of the two values (two experiments)
[7] = 4 μg/ml, second of the two values (two experiments)
[8] = 16 μg/ml, first of the two values (two experiments)
[9] = 16 μg/ml, second of the two values (two experiments)
[10] = 64 μg/ml, first of the two values (two experiments)
[11] = 64 μg/ml, second of the two values (two experiments)

SMILES	percent change from control cGI (% ΔcGI / % −ΔcGI) (M. avium ATCC 25291; 1 μg/ml) [%]	percent change from control cGI (% ΔcGI / % −ΔcGI) (M. avium ATCC 25291; 4 μg/ml) [%]	percent change from control cGI (% ΔcGI / % −ΔcGI) (M. avium ATCC 25291; 16 μg/ml) [%]	percent change from control cGI (% ΔcGI / % −ΔcGI) (M. avium ATCC 25291; 64 μg/ml) [%]	percent change from control cGI (% ΔcGI / % −ΔcGI) (MAP ATCC 19698; 1 μg/ml) [%]	percent change from control cGI (% ΔcGI / % −ΔcGI) (MAP ATCC 19698; 4 μg/ml) [%]	percent change from control cGI (% ΔcGI / % −ΔcGI) (MAP ATCC 19698; 16 μg/ml) [%]	percent change from control cGI (% ΔcGI / % −ΔcGI) (MAP ATCC 19698; 64 μg/ml) [%]	percent change from control cGI (% ΔcGI / % −ΔcGI) (MAP 303; 1 μg/ml) [%]	percent change from control cGI (% ΔcGI / % −ΔcGI) (MAP 303; 4 μg/ml) [%]	percent change from control cGI (% ΔcGI / % −ΔcGI) (MAP 303; 16 μg/ml) [%]	percent change from control cGI (% ΔcGI / % −ΔcGI) (MAP 303; 64 μg/ml) [%]	percent change from control cGI (% ΔcGI / % −ΔcGI) (M. avium 101; 1 μg/ml) [%]	percent change from control cGI (% ΔcGI / % −ΔcGI) (M. avium 101; 4 μg/ml) [%]	percent change from control cGI (% ΔcGI / % −ΔcGI) (M. avium 101; 16 μg/ml) [%]	percent change from control cGI (% ΔcGI / % −ΔcGI) (M. avium 101; 64 μg/ml) [%]	percent change from control cGI (% ΔcGI / % −ΔcGI) [3, 4] [%]	percent change from control cGI (% ΔcGI / % −ΔcGI) [3, 5] [%]	percent change from control cGI (% ΔcGI / % −ΔcGI) [3, 6] [%]	percent change from control cGI (% ΔcGI / % −ΔcGI) [3, 7] [%]	also measured
NC(=O)c1ccc[n+]([C@H]2O[C@H](COP(=O)([O-])OP(=O)(O)OC[C@H]3O[C@@H](n4cnc5c(N)ncnc54)[C@H](O)[C@@H]3O)[C@@H](O)[C@H]2O)c1 [α-NAD, α-nicotinamide adenine dinucleotide]	−2	160	131	147	−16	−6	−17	13	8	9	−8	−18	39	−15	−21	−14	25	−16	79	35	effect on growth (in words) (MAP ATCC 19698): little or no effect; effect on growth (in words) (MAP 303): little or no effect; effect on growth (in words) (M. avium 101): little or no effect; effect on growth (in words) ([1]; at the doses tested): little or no effect; effect on growth (in words) [2]: little or no effect; percent change from control cGI (% ΔcGI / % −ΔcGI) [2]: 2% and −6% and −1% and 0%; percent change from control cGI (% ΔcGI / % −ΔcGI) [3, 8]: 104%; percent change from control cGI (% ΔcGI / % −ΔcGI) [3, 9]: 78%; percent change from control cGI (% ΔcGI / % −ΔcGI) [3, 10]: 135%; percent change from control cGI (% ΔcGI / % −ΔcGI) [3, 11]: 115%; percent change from control cGI (% ΔcGI / % −ΔcGI) (MAP strain UCF-4; 1 μg/ml): 18%; percent change from control cGI (% ΔcGI / % −ΔcGI) (MAP strain UCF-4; 4 μg/ml): 35%; percent change from control cGI (% ΔcGI / % −ΔcGI) (MAP strain UCF-4; 16 μg/ml): 65%; percent change from control cGI (% ΔcGI / % −ΔcGI) (MAP strain UCF-4; 64 μg/ml): 81%
NNC(=O)c1ccncc1 [INH, Isoniazid, reference compound]	176	89	189	−90	−20	−14	−17	−63	−18	−6	−12	−52	−48	−96	−95	−97	18	11	9	29	effect on growth (in words) (MAP ATCC 19698; at the doses tested): no dose-dependent inhibition; effect on growth (in words) (MAP 303; at the doses tested): no dose-dependent inhibition; percent decrease from control cGI (%−ΔcGI) (M. avium 101; 64 μg/ml, value is a decrease): ≥ 97%; percent decrease from control cGI (%−ΔcGI) [1]: ≥ 97%; percent change from control cGI (% ΔcGI / % −ΔcGI) ([2]; 1 μg/ml): −97%; percent decrease from control cGI (%−ΔcGI) ([2]; 1 μg/ml): 97%; percent change from control cGI (% ΔcGI / % −ΔcGI) ([2]; 4 μg/ml): −98%; percent change from control cGI (% ΔcGI / % −ΔcGI) ([2]; 16 μg/ml): −98%; percent change from control cGI (% ΔcGI / % −ΔcGI) ([2]; 64 μg/ml): −98%; percent change from control cGI (% ΔcGI / % −ΔcGI) [3, 8]: −4%; percent change from control cGI (% ΔcGI / % −ΔcGI) [3, 9]: 9%; percent change from control cGI (% ΔcGI / % −ΔcGI) [3, 10]: −65%; percent change from control cGI (% ΔcGI / % −ΔcGI) [3, 11]: −52%; effect on growth (in words) ([3]; at the doses tested): no dose-dependent inhibition; percent change from control cGI (% ΔcGI / % −ΔcGI) (MAP strain UCF-4; 1 μg/ml): −5%; percent change from control cGI (% ΔcGI / % −ΔcGI) (MAP strain UCF-4; 4 μg/ml): 2%; percent change from control cGI (% ΔcGI / % −ΔcGI) (MAP strain UCF-4; 16 μg/ml): −4%; percent change from control cGI (% ΔcGI / % −ΔcGI) (MAP strain UCF-4; 64 μg/ml): −35%; effect on growth (in words) (MAP strain UCF-4; at the doses tested): no dose-dependent inhibition
O=C(O)c1ccccc1O [salicylic acid, reference compound]	–	–	–	104	–	–	–	–	–	–	–	66	–	–	–	–	–	–	–	–	percent change from control cGI (% ΔcGI / % −ΔcGI) ([1]; 64 μg/ml): 95%
O=C(O)c1cccnc1 [Nicotinic acid, nicotinic acid]	98	170	167	175	−17	−4	12	30	−4	2	−4	22	41	47	40	56	46	71	133	181	effect on growth (in words) (M. avium ATCC 25291; at the doses tested): enhanced growth; effect on growth (in words) (MAP ATCC 19698; at the doses tested): far less nicotinic acid induced enhancement; effect on growth (in words) (MAP 303; at the doses tested): far less nicotinic acid induced enhancement; effect on growth (in words) (M. avium 101; at the doses tested): enhanced growth; percent change from control cGI (% ΔcGI / % −ΔcGI) [3, 8]: 195%; percent change from control cGI (% ΔcGI / % −ΔcGI) [3, 9]: 198%; percent change from control cGI (% ΔcGI / % −ΔcGI) [3, 10]: 197%; percent change from control cGI (% ΔcGI / % −ΔcGI) [3, 11]: 225%; percent change from control cGI (% ΔcGI / % −ΔcGI) (MAP strain UCF-4; 1 μg/ml): 48%; percent change from control cGI (% ΔcGI / % −ΔcGI) (MAP strain UCF-4; 4 μg/ml): 63%; percent change from control cGI (% ΔcGI / % −ΔcGI) (MAP strain UCF-4; 16 μg/ml): 101%; percent change from control cGI (% ΔcGI / % −ΔcGI) (MAP strain UCF-4; 64 μg/ml): 92%; percent change from control cGI (% ΔcGI / % −ΔcGI) (MAP strain UCF-4; 64 μg/ml, listed as nicotinic acid): 92%
